Structures are written as SMILES. Where two headings read alike, the source gives them in different places.

One data set addresses BCL-XL (Homo sapiens (Human), UniProt Q07817). Nature of the data set: Protein-protein interaction assay BCL-XL/Bad BH3 peptide (BCL-XL assay), TR-FRET. It is filed as binding. The note with it: median. The protocol: Assay 2 Protein-Protein Interaction Assay: BCL-XL/Bad BH3 Peptide (BCL-XL Assay)
The dose-dependent inhibition by the compounds described in this invention of the interaction between BCL-XL and the BH3 domain of Bad (both human) was determined using a steady state binding competition assay with time-resolved fluorescence energy transfer (TR-FRET) readout. For that purpose BCL-XL (amino acids 1-212, C-terminal fused to a hexahistidine (6× His) tag (SEQ ID 3) and a synthetic Bad BH3-derived peptide of sequence Biotin-PEG2-PEG2-NLWAAQRYGRELRR-Nle-SDEFVDSFKK-amide (SEQ ID 4) served as protein receptor and tracer ligand respectively. The recombinant BCL-XL protein (expressed in Ecol) was purchased from BPS Bioscience (San Diego, Calif., USA). The Bad BH3-derived peptide can be obtained from e.g. Biosyntan (Berlin, Germany).
In the assay 11 different concentrations of each compound (0.1 nM, 0.33 nM, 1.1 nM, 3.8 nM, 13 nM, 44 nM, 0.15 μM, 0.51 μM, 1.7 μM, 5.9 μM and 20 μM) were typically measured as duplicates in the same microtiter plate. For that, 100-fold concentrated DMSO solutions were prepared by serial dilutions (1:3.4) of a 2 mM stock solution in a clear, 384-well microtiter plate (Greiner Bio-One, Frickenhausen, Germany). From there, 50 nl were transferred in a dark test plate (Greiner Bio-One, Frickenhausen, Germany). The assay was initiated by addition of 2 μl of a 2,5-fold concentrated His-BCL-XL solution (usually for a 1 nM end concentration in 5 μl reaction volume) in aqueous assay buffer [50 mM Tris/HCl pH 7, 100 mM sodium chloride (NaCl), 50 μM potassium fluoride (KF), 0.005% Tween-20, 2 mM DTT, 0.1% bovine gamma globulin (BGG)] to the compounds in the assay plate. This was followed by a 10-minute incubation step at 22° C. for pre-equilibration of the putative complex between His-BCL-XL and the compounds. After that, 3 μl of a 1.67-fold concentrated solution (in assay buffer) consisting of Bad BH3-derived peptide (1 nM end concentration) and TR-FRET detection reagents [1.67 nM anti-His-Eu cryptate and 1.67 nM streptavidin-XL665 (both from Cisbio Bioassays, Codolet, France)], were added.
The mixture was incubated in the dark for one hour at 22° C. and then overnight at 4° C. The formation of BCL-XL/Bad complexes was determined by measuring the resonance energy transfer of the anti-His-Eu-cryptate antibody to the streptavidin-XL665 present in the reaction. For that purpose, the fluorescence emission at 620 nm and 665 nm after excitation at 330-350 nm was measured in a TR-FRET measuring instrument, for instance a Rubystar or a Pherastar (both from BMG Lab Technologies, Offenburg, Germany) or a Viewlux (Perkin-Elmer). The ratio of the emission at 665 nm and at 622 nm was used as indicator of the amount of BCL-XL/Bad complexes present.
The resulting data (ratio) were normalized, taking 0% inhibition as the mean value of control measurements (usually 32 data points) where all reagents were included. In this case 50 nl DMSO were used instead of compounds. A 100% inhibition corresponded to the mean value of control measurements (usually 32 data points) where all reagents except BCL-XL were included. IC50 values were determined by regression analysis based on a 4 parameter equation (minimum, maximum, IC50, Hill; Y=Max+(Min−Max)/(1+(X/IC50)^Hill) using the Screener Software (Genedata).
Background: TR-FRET usually uses a lanthanide donor and a delayed reading to cut background.

Data set [1] concerns SUDHL10. Nature of the data set: Induction of caspase-3/7 activity, SUDHL10 (Assay 4). The data set is classed as cell-based. Particulars: SUDHL10 cells. Summed up:
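DLBCL lines treated with compounds for 3 h at 37° C.; caspase-3/7 activity read by Caspase-Glo 3/7 luminescence. Medium-only background subtracted; EC50 fitted with bottom fixed at 1 and top set to reference compound's maximal induction.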

Another data set has as its system A2780. In words: Antiproliferation assay A2780 (Assay 7). It is filed as cell-based. Particulars: A2780 cells, CellTiter-Glo, single determinations, read-out: IC50 Antiproli A2780. Summed up:
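CellTiter-Glo luminescence readout; 72 h compound exposure, 37 °C, humidified; rim wells excluded; time-zero reference plate plated in parallel and read identically.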
On the technique in general: Cellular ATP, detected with luciferase, serves as a proxy for viable cell number.

The next data set relates to SUDHL5. In words: Induction of cytotoxicity, SUDHL5 (Assay 6). Particulars: read-out: IC50 Cytotox SUDHL5 [M] (median), SUDHL5 cells, 5 h, CellTiter-Glo.
Data set [2] deals with SUDHL10. Nature of the data set: Induction of cytotoxicity, SUDHL10 (Assay 6). The note with it: read-out: IC50 Cytotox SUDHL10 [M] (median), SUDHL10 cells, 5 h, CellTiter-Glo.
Protocol: (§1) In principle, compounds that induce apoptosis will concomitantly induce cell cytotoxicity. Therefore, cytotoxicity assays were run in parallel in SUDHL5 and SUDHL10 cells.
(§2) The different cell lines were plated in culture medium (RPMI 1640 [GIBCO #22400-089] supplemented with 10% Fetal Bovine Serum) at a density of 3,300 cells in 30 μl/well in a sterile, solid black, flat bottom, polystyrene, TC-treated 384-well microplate (Corning #3571) using Multidrop Combi Reagent Dispenser. As a control, medium without cells was also added to the plate. Cells were incubated in a humidified incubator at 37° C. overnight. On the next day, the cells were treated with compounds (stock solution, 10 mM in DMSO) using the HP D300 Digital Dispenser in a concentration range of 3.3×10e-5 M (33 μM) to 5×10e-9 M (5 nM) in a single-dot curve with at least 16 dilutions and a DMSO concentration of 0.33%. Rim wells were excluded. The cells were incubated for 5 h hours in a humidified incubator at 37° C. After this incubation, 30 μl of CellTiter-Glo® Luminescent Cell Viability reagent (Promega, G7573) was added to each well using the Multidrop Combi Reagent Dispenser, followed by 15 min incubation on a shaker at room temperature. Finally, luminescence was read at 0.1 ms, with a gain of 3000 using the PHERAstar FS microplate reader (BMG Labtech).
(§3) The Bella DRC Master Sheet was used to calculate IC50s, with fixed CI=0 and C0=1.
Setting [3] is: Homo sapiens, SU-DHL10, 3 h, Caspase-Glo 3/7, median.

BCL-XL, sequence (Q07817 1-212): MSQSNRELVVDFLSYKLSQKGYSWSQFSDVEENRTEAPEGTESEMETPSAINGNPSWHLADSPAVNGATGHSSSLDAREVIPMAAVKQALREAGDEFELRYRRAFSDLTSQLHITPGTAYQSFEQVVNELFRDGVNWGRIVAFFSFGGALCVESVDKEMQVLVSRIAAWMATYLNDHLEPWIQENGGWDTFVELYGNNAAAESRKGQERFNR
Protocol for SUDHL5: as §1, §2, §3

Take `CCc1c2c(nn1C)COCCCCn1c(C(=O)O)c(CCCOc3cccc4c3CCCC4)c3ccc(F)c-2c31` (racemic) [Example 29, (rac)-12-ethyl-13-fluoro-11-methyl-1-(3-((5,6,7,8-tetrahydronaphthalen-1-yl)oxy)propyl)-4,5,6,7,9,11-hexahydropyrazolo[4′,3′:9,10][1]oxa[6]azacycloundecino[8,7,6-hi]indole-2-carboxylic acid]: the concentration for half-maximal inhibition (IC50) (usually the concentration that gives 50% inhibition) against BCL-XL is greater than 20 µM; with A2780 (Homo sapiens, A2780, 72 h), 9.17 µM; in the data set with SUDHL5 (Homo sapiens, SU-DHL-5, 5 h) it was 1.2e-06 M; in the data set on SUDHL10 [2] (Homo sapiens, SU-DHL10, 5 h) it was 1.8e-06 M. In addition, in the data set with SUDHL10 [1] (setting [3]), the EC50 (commonly the concentration giving half of the maximal effect) came to 1.7 µM.
For `CCc1c2c(nn1C)COCCCCn1c(C(=O)O)c(CCCOc3cc(C)c(Cl)c(C)c3)c3ccc(F)c-2c31` (racemic) [Example 31, (rac)-1-(3-(4-chloro-3,5-dimethylphenoxy)propyl)-12-ethyl-13-fluoro-11-methyl-4,5,6,7,9,11-hexahydropyrazolo[4′,3′:9,10][1]oxa[6]azacycloundecino[8,7,6-hi]indole-2-carboxylic acid], the IC50 on BCL-XL is greater than 20 µM; with A2780 (Homo sapiens, A2780, 72 h) it was 12.1 µM; in the data set on SUDHL5 (Homo sapiens, SU-DHL-5, 5 h), 2.9e-06 M; in the data set on SUDHL10 [2] (Homo sapiens, SU-DHL10, 5 h), 3.6e-06 M. In the data set on SUDHL10 [1] (setting [3]), this compound gave a half-maximal effective concentration (EC50) of 4.5 µM.
The matching figures for `Cc1nn(C)c2c1-c1c(F)ccc3c(CCCOc4cccc5cc(F)ccc45)c(C(=O)O)n(c13)CCCCOC2` (racemic) [Example 32, (rac)-13-fluoro-1-(3-((6-fluoronaphthalen-1-yl)oxy)propyl)-10,12-dimethyl-4,5,6,7,9,10-hexahydropyrazolo[4′,3′:9,10][1]oxa[6]azacycloundecino[8,7,6-hi]indole-2-carboxylic acid]: greater than 20 µM, 15.2 µM, 1.1e-06 M, 2e-06 M and 2.6 µM.
The matching figures for `Cc1nn(C)c2c1-c1c(F)ccc3c(CCCOc4ccc(F)c5ccccc45)c(C(=O)O)n(c13)CCCCOC2` (racemic) [Example 33, (rac)-13-fluoro-1-(3-((4-fluoronaphthalen-1-yl)oxy)propyl)-10,12-dimethyl-4,5,6,7,9,10-hexahydropyrazolo[4′,3′:9,10][1]oxa[6]azacycloundecino[8,7,6-hi]indole-2-carboxylic acid]: greater than 20 µM, 23.3 µM, 3.5e-06 M, 8.4e-06 M and 9.1 µM.
On the same counts, the results for `Cc1nn(C)c2c1-c1c(F)ccc3c(CCCOc4cccc5c4CCCC5)c(C(=O)O)n(c13)CCCCOC2` (racemic) [Example 34, (rac)-13-fluoro-10,12-dimethyl-1-(3-((5,6,7,8-tetrahydronaphthalen-1-yl)oxy)propyl)-4,5,6,7,9,10-hexahydropyrazolo[4′,3′:9,10][1]oxa[6]azacycloundecino[8,7,6-hi]indole-2-carboxylic acid] are greater than 20 µM, 20.9 µM, 2.6e-06 M, 4.2e-06 M and 5.9 µM.
In the case of `Cc1nn(C)c2c1-c1c(F)ccc3c(CCCOc4cccc5c4CCC5)c(C(=O)O)n(c13)CCCCOC2` (racemic) [Example 35, (rac)-1-(3-((2,3-dihydro-1H-inden-4-yl)oxy)propyl)-13-fluoro-10,12-dimethyl-4,5,6,7,9,10-hexahydropyrazolo[4′,3′:9,10][1]oxa[6]azacycloundecino[8,7,6-hi]indole-2-carboxylic acid], the IC50 was greater than 20 µM against BCL-XL; 15 µM in the data set on A2780 (Homo sapiens, A2780, 72 h); 7.1e-06 M in the data set with SUDHL5 (Homo sapiens, SU-DHL-5, 5 h); 1.5e-05 M with SUDHL10 [2] (Homo sapiens, SU-DHL10, 5 h). Besides, in the data set on SUDHL10 [1] (setting [3]), the EC50 stood at 20 µM.
On to `Cc1cc(OCCCc2c(C(=O)O)n3c4c(c(F)ccc24)-c2c(C)nn(C)c2COCCCC3)cc(C)c1Cl` (racemic) [Example 36, (rac)-1-(3-(4-chloro-3,5-dimethylphenoxy)propyl)-13-fluoro-10,12-dimethyl-4,5,6,7,9,10-hexahydropyrazolo[4′,3′:9,10][1]oxa[6]azacycloundecino[8,7,6-hi]indole-2-carboxylic acid], for which the 50% inhibitory concentration (IC50) against BCL-XL was greater than 20 µM; with A2780 (Homo sapiens, A2780, 72 h) it was 29.5 µM; in the data set on SUDHL5 (Homo sapiens, SU-DHL-5, 5 h) it was 4.3e-06 M; with SUDHL10 [2] (Homo sapiens, SU-DHL10, 5 h), 9e-06 M. Further, the 50% effective concentration (EC50) in the data set on SUDHL10 [1] (setting [3]) was determined as 12 µM.
For `CCc1nn(C)c2c1-c1c(F)ccc3c(CCCOc4cccc5ccccc45)c(C(=O)O)n(c13)CCCCOC2` (racemic) [Example 37, (rac)-12-ethyl-13-fluoro-10-methyl-1-(3-(naphthalen-1-yloxy)propyl)-4,5,6,7,9,10-hexahydro-pyrazolo[4′,3′:9,10][1]oxa[6]azacycloundecino[8,7,6-hi]indole-2-carboxylic acid], the IC50 is greater than 20 µM on BCL-XL; greater than 33 µM in the data set on A2780 (Homo sapiens, A2780, 72 h); 2.1e-06 M in the data set with SUDHL5 (Homo sapiens, SU-DHL-5, 5 h); 4.8e-06 M in the data set on SUDHL10 [2] (Homo sapiens, SU-DHL10, 5 h). Also, the response in the data set on SUDHL10 [1] (setting [3]) was half-maximal at 7.2 µM (EC50).
The matching figures for `CCc1nn(C)c2c1-c1c(F)ccc3c(CCCOc4cccc5c4CCC5)c(C(=O)O)n(c13)CCCCOC2` (racemic) [Example 45, (rac)-1-(3-((2,3-dihydro-1H-inden-4-yl)oxy)propyl)-12-ethyl-13-fluoro-10-methyl-4,5,6,7,9,10-hexahydropyrazolo[4′,3′:9,10][1]oxa[6]azacycloundecino[8,7,6-hi]indole-2-carboxylic acid]: greater than 20 µM, 28.2 µM, 1.9e-06 M, 3.4e-06 M and 6.4 µM.
As for `Cc1c2c(nn1C)CNCCCCn1c(C(=O)O)c(CCCOc3cccc4ccccc34)c3ccc(F)c-2c31` (single isomer, unassigned; enantiomer 1) [Example 48, 4-fluoro-2,3-dimethyl-7-{3-[(naphthalen-1-yl)oxy]propyl}-10,11,12,13,14,15-hexahydro-2H-pyrazolo[3′,4′:8,9][1,6]diazacycloundecino[10,11,1-hi]indole-8-carboxylic acid (enantiomer 1)], the IC50 was greater than 20 µM against BCL-XL, 7.17 µM in the data set with A2780 (72 h), 1.3e-06 M with SUDHL5 and 1.9e-06 M with SUDHL10 [2]. This compound also had an EC50 in the data set on SUDHL10 [1] (3 h, Caspase-Glo 3/7, median) of 2.1 µM.
